Laboratory results as given in patent US20070203215A1, “Methods & Compositions For Enhancing Pharmaceutical Treatments” (Taiji Biomedical, Inc., priority 1999, published 2007).

Experiments:
SKOV3 = experiment: Cell proliferation assay; format: cell-based; conditions: Homo sapiens, SK-OV-3; Ovarian carcinoma SKOV3, P-gp Neg; read-out: Formula 2 compound IC50 (inhibition of growth)
Protocol: (§1) Cell proliferation IC50s and MDR reversal EC50s were determined from 3-day dose-response curves carried out in triplicate in 96-well plates essentially as described by Monks et al. (J. Natl. Cancer Inst., 83:757-66, 1991). Cells were plated in standard growth medium at 2.5 or 5.0×10^4 per well (CCRF-CEM and CEM/VLB1000 respectively) or 5×10^3 per well (all other cell lines) in a final volume of 100 μl. After a 2 h incubation for non-adherent cells and overnight incubation for adherent cells, the initial cell density was determined by fluorescence readout of Alamar Blue metabolism. The compound of Formula 2, cytotoxic agents, or compound vehicles were added to duplicate plates and the incubation was continued for an additional 72 h. Final cell density was determined with Alamar Blue. In some experiments, a standard endpoint assay was used without analysis of initial cell density with Alamar Blue. Similar results were obtained with the two assays. EC50s were derived by nonlinear regression analysis assuming a sigmoidal dose-response using GraphPad Prism Software (San Diego, Calif.). Proliferation assays capable of measuring both cytostatic and cytotoxic responses were carried out as described herein with 15 non-transformed and transformed cell lines, including primary fibroblasts, non-transformed smooth muscle, leukemia, breast, colon, ovarian and uterine carcinoma cells (±P-gp expression). Although the compound of Formula 2 reversed P-gp-mediated MDR in the low nanomolar concentration range, the compound was non-cytotoxic by itself at doses up to 100 μM in all cell lines. […] IC50s for non-specific cytotoxicity were similar in matched cell lines plus and minus P-gp expression. […] If it were, some consistent degree of resistance would be expected in P-gp expressing cells.

CCD-986SK = experiment: Cell proliferation assay; format: cell-based; conditions: Homo sapiens; Primary fibroblast CCD-986SK; read-out: Formula 2 compound IC50 (inhibition of growth)
Protocol: as §1

SK/VLB1000 = experiment: Cell proliferation assay; format: cell-based; conditions: Homo sapiens; Ovarian carcinoma SK/VLB1000, P-gp Pos; read-out: Formula 2 compound IC50 (inhibition of growth)
Protocol: as §1

SW620 = experiment: Cell proliferation assay; format: cell-based; conditions: Homo sapiens, SW-620; Colorectal carcinoma SW620, P-gp Neg; read-out: Formula 2 compound IC50 (inhibition of growth)
Protocol: as §1

Cell proliferation assay = format: cell-based; conditions: human, MDA/LCC6^MDR1 breast carcinoma cells (P-gp positive); Breast carcinoma MDA/LCC6^MDR1, P-gp Pos; read-out: Formula 2 compound IC50 (inhibition of growth)
Protocol: as §1

HCT-15 = experiment: Cell proliferation assay; format: cell-based; conditions: Homo sapiens; Colorectal carcinoma HCT-15, P-gp Pos; read-out: Formula 2 compound IC50 (inhibition of growth)
Protocol: as §1

CEM/VLB1000 = experiment: Cell proliferation assay; format: cell-based; conditions: Homo sapiens; Lymphoma CEM/VLB1000, P-gp Pos; read-out: Formula 2 compound IC50 (inhibition of growth)
Protocol: as §1

MES-SA = experiment: Cell proliferation assay; format: cell-based; conditions: Homo sapiens; Uterine carcinoma MES-SA, P-gp Neg; read-out: Formula 2 compound IC50 (inhibition of growth)
Protocol: as §1

SW480 = experiment: Cell proliferation assay; format: cell-based; conditions: Homo sapiens; Colorectal carcinoma SW480, P-gp Pos; read-out: Formula 2 compound IC50 (inhibition of growth)
Protocol: as §1

[1] = PK interaction study, i.v. plasma paclitaxel levels; format: in vivo, SCID/RAG2 mice; conditions: three oral doses of 30 mg/kg before i.v. 16 mg/kg paclitaxel, FIG. 5
Protocol: At the indicated times after paclitaxel administration, 3 mice per time point were anesthetized with CO2 and blood was removed by cardiac puncture into Microtainer tubes containing EDTA. Plasma samples generated by centrifugation were extracted with acetonitrile and the analysis for paclitaxel content was carried out by HPLC using a Waters 600E multisolvent delivery system, 717 plus autosampler and 996 photodiode array detector. Baccatin III (0.8 nmoles/200 μl plasma) was used as the internal standard (IS) and added to plasma samples during extraction with acetonitrile. Standard curve samples as well as quality control samples were also prepared from spiked control plasma in order to verify the accuracy of the HPLC analysis. […] Waters, Milford, Mass.) with double distilled water (A), and acetonitrile (B), using the following gradient profile: t=0 min, 10% B; t=5 min, 10% B; t=30 min, 65% B; t=40 min, 65% B; t=45 min, 10% B; t=50 min, 10% B. The gradient was formed using a high pressure mixer and the flow rate was 1.0 ml min^−1. A Waters 996 Photo Diode Array Detector was used to scan at multiple wavelengths and chromatograms were processed for traces obtained at 230 nm.

## CCOC/C=C/c1ccc(-c2nc(-c3ccc(NC(C)C)cc3)c(-c3ccc(NC(C)C)cc3)[nH]2)cc1 [Formula 2 compound]
SKOV3
  IC50: 48 µM
CCD-986SK
  IC50: > 100 µM
SK/VLB1000
  IC50: 15 µM
SW620
  IC50: > 100 µM
Cell proliferation assay
  IC50 at 72 h: > 100 µM
HCT-15
  IC50: 6 µM
CEM/VLB1000
  IC50: 32 µM
MES-SA
  IC50: 51 µM
SW480
  IC50: > 100 µM
[1]
  Effect on i.v. plasma paclitaxel levels: no effect
